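Five compound concentrations were applied to cells in 96-well plates for 48 hours; endpoints were derived by simple linear interpolation of the resulting dose-response curve. At the TGI there is no net growth.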
Columns and labels:
Assay in all cases: NCI anticancer screen, dose series, 48 h
NCI-H460 lung = test system: NCI-H460 lung
SF-539 CNS = test system: SF-539 CNS
U251 CNS = test system: U251 CNS
OVCAR-4 ovarian = test system: OVCAR-4 ovarian
SW-620 colon = test system: SW-620 colon
SK-MEL-2 melanoma = test system: SK-MEL-2 melanoma
NCI-H23 lung = test system: NCI-H23 lung
NCI-H226 lung = test system: NCI-H226 lung
MDA-MB-231 breast = test system: MDA-MB-231 breast
HCT-116 colon = test system: HCT-116 colon
A549 NSCLC = test system: A549 NSCLC
RXF 393 renal = test system: RXF 393 renal
NCI/ADR-RES ovarian = test system: NCI/ADR-RES ovarian
SK-MEL-28 melanoma = test system: SK-MEL-28 melanoma
T-47D breast = test system: T-47D breast
HOP-92 NSCLC = test system: HOP-92 NSCLC
PC-3 prostate = test system: PC-3 prostate
UACC-257 melanoma = test system: UACC-257 melanoma
RPMI-8226 leukemia = test system: RPMI-8226 leukemia
EKVX NSCLC = test system: EKVX NSCLC
M14 melanoma = test system: M14 melanoma
786-0 renal = test system: 786-0 renal
SF-295 CNS = test system: SF-295 CNS
SF-268 CNS = test system: SF-268 CNS
OVCAR-5 ovarian = test system: OVCAR-5 ovarian
MALME-3M melanoma = test system: MALME-3M melanoma
HOP-62 NSCLC = test system: HOP-62 NSCLC
MDA-MB-435 = test system: MDA-MB-435
OVCAR-8 ovarian = test system: OVCAR-8 ovarian
UACC-62 melanoma = test system: UACC-62 melanoma
CAKI-1 renal = test system: CAKI-1 renal
DU-145 prostate = test system: DU-145 prostate
SNB-75 CNS = test system: SNB-75 CNS
ACHN renal = test system: ACHN renal
SK-MEL-5 melanoma = test system: SK-MEL-5 melanoma
MDA-N = test system: MDA-N
MCF7 breast = test system: MCF7 breast
UO-31 renal = test system: UO-31 renal
K-562 leukemia = test system: K-562 leukemia
LOX IMVI melanoma = test system: LOX IMVI melanoma
SK-OV-3 ovarian = test system: SK-OV-3 ovarian
SN12C renal = test system: SN12C renal
SR leukemia = test system: SR leukemia
KM12 colon = test system: KM12 colon
HS 578T breast = test system: HS 578T breast
HCC-2998 colon = test system: HCC-2998 colon
BT-549 breast = test system: BT-549 breast
SNB-19 CNS = test system: SNB-19 CNS
IGROV1 ovarian = test system: IGROV1 ovarian
TK-10 renal = test system: TK-10 renal
OVCAR-3 ovarian = test system: OVCAR-3 ovarian
CCRF-CEM leukemia = test system: CCRF-CEM leukemia
HCT-15 colon = test system: HCT-15 colon
HL-60(TB) leukemia = test system: HL-60(TB) leukemia
COLO 205 colon = test system: COLO 205 colon
NCI-H522 lung = test system: NCI-H522 lung
MOLT-4 leukemia = test system: MOLT-4 leukemia
A498 renal = test system: A498 renal
HT29 colon = test system: HT29 colon

`O=S(=O)(Nc1nc2ccccc2nc1Nc1cccc2ccccc12)c1ccccc1` was tested. Which TGI (NCI-H460 lung) did it give?
The TGI was > 100 µM.

And the TGI (SF-539 CNS)?
Its TGI is > 100 µM.

And the TGI (U251 CNS)?
Its TGI is 30 µM.

And the TGI (OVCAR-4 ovarian)?
The TGI was 5.99 µM.

What about the TGI (SW-620 colon) of the same compound?
Its TGI is > 100 µM.

And the TGI (SK-MEL-2 melanoma)?
The TGI was > 100 µM.

What about the TGI (NCI-H23 lung) of the same compound?
The TGI was 64.4 µM.

And the TGI (NCI-H226 lung)?
The TGI was > 100 µM.

What about the TGI (MDA-MB-231 breast) of the same compound?
The TGI was 43.9 µM.

And the TGI (HCT-116 colon)?
The TGI was > 100 µM.

What about the TGI (A549 NSCLC) of the same compound?
The TGI was > 100 µM.

And the TGI (RXF 393 renal)?
The TGI was 78.9 µM.

And the TGI (NCI/ADR-RES ovarian)?
The TGI was > 100 µM.

What about the TGI (SK-MEL-28 melanoma) of the same compound?
Its TGI is > 100 µM.

What about the TGI (T-47D breast) of the same compound?
The TGI was > 100 µM.

What about the TGI (HOP-92 NSCLC) of the same compound?
The TGI was 16.5 µM.

What about the TGI (PC-3 prostate) of the same compound?
The TGI was > 100 µM.

And the TGI (UACC-257 melanoma)?
Its TGI is > 100 µM.

What about the TGI (RPMI-8226 leukemia) of the same compound?
Its TGI is > 100 µM.

And the TGI (EKVX NSCLC)?
Its TGI is > 100 µM.

And the TGI (M14 melanoma)?
The TGI was > 100 µM.

What about the TGI (786-0 renal) of the same compound?
Its TGI is 68.4 µM.

And the TGI (SF-295 CNS)?
Its TGI is > 100 µM.

And the TGI (SF-268 CNS)?
Its TGI is > 100 µM.

And the TGI (OVCAR-5 ovarian)?
Its TGI is > 100 µM.

And the TGI (MALME-3M melanoma)?
The TGI was > 100 µM.

What about the TGI (HOP-62 NSCLC) of the same compound?
The TGI was 33 µM.

And the TGI (MDA-MB-435)?
Its TGI is > 100 µM.

What about the TGI (OVCAR-8 ovarian) of the same compound?
Its TGI is > 100 µM.

And the TGI (UACC-62 melanoma)?
The TGI was > 100 µM.

What about the TGI (CAKI-1 renal) of the same compound?
The TGI was > 100 µM.

What about the TGI (DU-145 prostate) of the same compound?
Its TGI is > 100 µM.

What about the TGI (SNB-75 CNS) of the same compound?
Its TGI is 57.6 µM.

What about the TGI (ACHN renal) of the same compound?
The TGI was > 100 µM.

What about the TGI (SK-MEL-5 melanoma) of the same compound?
Its TGI is > 100 µM.

And the TGI (MDA-N)?
The TGI was > 100 µM.

What about the TGI (MCF7 breast) of the same compound?
Its TGI is > 100 µM.

And the TGI (UO-31 renal)?
The TGI was > 100 µM.

And the TGI (K-562 leukemia)?
The TGI was > 100 µM.

And the TGI (LOX IMVI melanoma)?
Its TGI is > 100 µM.

What about the TGI (SK-OV-3 ovarian) of the same compound?
The TGI was > 100 µM.

And the TGI (SN12C renal)?
The TGI was > 100 µM.

What about the TGI (SR leukemia) of the same compound?
Its TGI is > 100 µM.

What about the TGI (KM12 colon) of the same compound?
The TGI was > 100 µM.

And the TGI (HS 578T breast)?
Its TGI is 95.2 µM.

What about the TGI (HCC-2998 colon) of the same compound?
The TGI was > 100 µM.

What about the TGI (BT-549 breast) of the same compound?
The TGI was > 100 µM.

And the TGI (SNB-19 CNS)?
The TGI was 61.2 µM.

What about the TGI (IGROV1 ovarian) of the same compound?
Its TGI is > 100 µM.

What about the TGI (TK-10 renal) of the same compound?
Its TGI is 28.9 µM.

And the TGI (OVCAR-3 ovarian)?
Its TGI is > 100 µM.

`CC(=O)O[C@H]1C[C@H]2[C@@H]([C@H](OC(C)=O)C[C@@H]3CC4(CC[C@@]32C)OOC2(CCCCC2)OO4)[C@@H]2CC[C@H]([C@H](C)CCC(N)=O)[C@@]12C` was tested. Which TGI (CCRF-CEM leukemia) did it give?
Its TGI is 3.13 µM.

What about the TGI (NCI-H460 lung) of the same compound?
The TGI was 5.06 µM.

And the TGI (SF-539 CNS)?
Its TGI is 10.7 µM.

And the TGI (U251 CNS)?
The TGI was 3.15 µM.

What about the TGI (OVCAR-4 ovarian) of the same compound?
Its TGI is 4.21 µM.

What about the TGI (SW-620 colon) of the same compound?
Its TGI is 5.77 µM.

And the TGI (SK-MEL-2 melanoma)?
The TGI was 4.48 µM.

And the TGI (NCI-H23 lung)?
The TGI was 2.83 µM.

What about the TGI (NCI-H226 lung) of the same compound?
The TGI was 6.8 µM.

And the TGI (MDA-MB-231 breast)?
Its TGI is 4.22 µM.

And the TGI (HCT-116 colon)?
Its TGI is 11.2 µM.

And the TGI (A549 NSCLC)?
The TGI was 2.93 µM.

What about the TGI (HCT-15 colon) of the same compound?
Its TGI is 5.31 µM.

And the TGI (RXF 393 renal)?
The TGI was 10.2 µM.

What about the TGI (NCI/ADR-RES ovarian) of the same compound?
Its TGI is 4.95 µM.

What about the TGI (SK-MEL-28 melanoma) of the same compound?
The TGI was 24.7 µM.

And the TGI (T-47D breast)?
Its TGI is 3.84 µM.

And the TGI (PC-3 prostate)?
The TGI was 4.15 µM.

What about the TGI (UACC-257 melanoma) of the same compound?
The TGI was 19.9 µM.

And the TGI (RPMI-8226 leukemia)?
Its TGI is 2.7 µM.

And the TGI (EKVX NSCLC)?
The TGI was 3.23 µM.

What about the TGI (M14 melanoma) of the same compound?
The TGI was 9.67 µM.

What about the TGI (786-0 renal) of the same compound?
Its TGI is 3.52 µM.

And the TGI (SF-295 CNS)?
Its TGI is 9.66 µM.

What about the TGI (SF-268 CNS) of the same compound?
Its TGI is 3.47 µM.

And the TGI (OVCAR-5 ovarian)?
Its TGI is 6.65 µM.

And the TGI (MALME-3M melanoma)?
Its TGI is 6.82 µM.

And the TGI (HOP-62 NSCLC)?
The TGI was 2.11 µM.

And the TGI (MDA-MB-435)?
Its TGI is 3.27 µM.

What about the TGI (OVCAR-8 ovarian) of the same compound?
Its TGI is 9.87 µM.

And the TGI (UACC-62 melanoma)?
The TGI was 6.31 µM.

What about the TGI (CAKI-1 renal) of the same compound?
Its TGI is 2.14 µM.

And the TGI (DU-145 prostate)?
The TGI was 3.52 µM.

What about the TGI (HL-60(TB) leukemia) of the same compound?
Its TGI is 3.81 µM.

What about the TGI (SNB-75 CNS) of the same compound?
The TGI was 4.89 µM.

And the TGI (ACHN renal)?
The TGI was 3.12 µM.

And the TGI (COLO 205 colon)?
Its TGI is 3.68 µM.

And the TGI (SK-MEL-5 melanoma)?
The TGI was 5.24 µM.

And the TGI (MDA-N)?
Its TGI is 3.71 µM.

And the TGI (NCI-H522 lung)?
The TGI was 1.48 µM.

And the TGI (MCF7 breast)?
The TGI was 9.29 µM.

And the TGI (UO-31 renal)?
Its TGI is 0.193 µM.

What about the TGI (K-562 leukemia) of the same compound?
Its TGI is 6.02 µM.

And the TGI (SK-OV-3 ovarian)?
Its TGI is 25.5 µM.

And the TGI (SN12C renal)?
The TGI was 5.5 µM.

And the TGI (SR leukemia)?
Its TGI is 1.88 µM.

And the TGI (KM12 colon)?
The TGI was 3.3 µM.

And the TGI (HS 578T breast)?
Its TGI is 19.7 µM.

What about the TGI (HCC-2998 colon) of the same compound?
Its TGI is 7.41 µM.

And the TGI (BT-549 breast)?
Its TGI is 4.86 µM.

What about the TGI (MOLT-4 leukemia) of the same compound?
Its TGI is 2.9 µM.

What about the TGI (SNB-19 CNS) of the same compound?
Its TGI is 20.1 µM.

And the TGI (IGROV1 ovarian)?
Its TGI is 0.474 µM.

What about the TGI (TK-10 renal) of the same compound?
Its TGI is 6.27 µM.

What about the TGI (A498 renal) of the same compound?
The TGI was 18.1 µM.

What about the TGI (HT29 colon) of the same compound?
The TGI was 14.3 µM.

And the TGI (OVCAR-3 ovarian)?
Its TGI is 3.17 µM.

— PubChem BioAssay (NCI)
